Laboratory results: patent publication US20250206724A1, “SUBSTITUTED 3-AMINO INDAZOLE DERIVATIVES AS KINASE INHIBITORS” (NERVIANO MEDICAL SCIENCES S.R.L., priority 2022, published 2025)
Structures can show the parent of a compound that is named as a salt.

target: T1, CDK11A (Homo sapiens, UniProt Q9UQ88); conditions: displacement of SNS-032-Atto590 probe (0.002 μM) from CDK11A-p58 (0.032 uM), fluorescence polarization
T1 sequence (Q9UQ88 346-783): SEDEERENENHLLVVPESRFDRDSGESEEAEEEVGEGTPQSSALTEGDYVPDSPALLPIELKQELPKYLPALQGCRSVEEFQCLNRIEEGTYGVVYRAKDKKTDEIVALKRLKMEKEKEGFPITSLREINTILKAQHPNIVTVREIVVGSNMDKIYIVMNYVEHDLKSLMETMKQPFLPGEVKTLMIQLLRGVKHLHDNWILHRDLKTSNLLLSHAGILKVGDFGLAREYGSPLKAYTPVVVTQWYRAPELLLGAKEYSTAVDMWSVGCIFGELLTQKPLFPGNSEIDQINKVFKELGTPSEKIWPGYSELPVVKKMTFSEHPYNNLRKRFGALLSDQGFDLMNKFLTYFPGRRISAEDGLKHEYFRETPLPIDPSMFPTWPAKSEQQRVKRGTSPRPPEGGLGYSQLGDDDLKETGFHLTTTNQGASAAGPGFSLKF
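Further: compound preincubated 30 min with CDK11A-p58, then probe added and polarization (mP) read 15 min later, 0% displacement is probe plus enzyme, 100% is probe alone.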

| Compound | DC50 |
| --- | --- |
| CN1CCC(C(=O)Nc2n[nH]c3ccc(-c4ccccc4Cl)cc23)CC1 [cpd 85, N-[5-(2-Chlorophenyl)-1H-indazol-3-yl]-1-methylpiperidine-4-carboxamide hydrochloride] | 0.393 µM |
| N#Cc1ccc(Cl)c(-c2ccc3[nH]nc(NC(=O)C4CC(NC5CC5)C4)c3c2)c1 (centres unmarked) [compound 155, N-[5-(2-Chloro-5-cyanophenyl)-1H-indazol-3-yl]-3-(cyclopropylamino)cyclobutanecarboxamide hydrochloride] | 0.053 µM |
| CCCCN1CCC(C(=O)Nc2n[nH]c3ccc(-c4cc(C#N)ccc4Cl)cc23)CC1 [compound 140, 1-Butyl-N-[5-(2-chloro-5-cyanophenyl)-1H-indazol-3-yl]piperidine-4-carboxamide hydrochloride] | 0.068 µM |
| COC(=O)c1ccc(Cl)c(-c2ccc3[nH]nc(NC(=O)[C@@H]4CCCNC4)c3c2)c1Cl [cpd 57, Methyl 2,4-dichloro-3-(3-{[(3R)-piperidin-3-ylcarbonyl]amino}-1H-indazol-5-yl)benzoate hydrochloride] | 0.045 µM |
| CC(C)c1ccc(Cl)c(-c2ccc3[nH]nc(NC(=O)[C@@H]4CCCNC4)c3c2)c1 [cpd 48, (3R)-N-{5-[2-Chloro-5-(propan-2-yl)phenyl]-1H-indazol-3-yl}piperidine-3-carboxamide hydrochloride] | 0.31 µM |
| O=C(Nc1n[nH]c2ccc(-c3ccc(F)cc3F)cc12)[C@@H]1CCCNC1 [cpd 30, (3R)-N-[5-(2,4-Difluorophenyl)-1H-indazol-3-yl]piperidine-3-carboxamide hydrochloride] | 0.038 µM |
| Cc1ccc(-c2ccc3[nH]nc(NC(=O)[C@@H]4CCCNC4)c3c2)c(Cl)c1 [cpd 8, (3R)-N-[5-(2-Chloro-4-methylphenyl)-1H-indazol-3-yl]piperidine-3-carboxamide hydrochloride] | 0.125 µM |
| COc1ccc(Cl)c(-c2ccc3[nH]nc(NC(=O)[C@@H]4CCCNC4)c3c2)c1 [cpd 18, (3R)-N-[5-(2-Chloro-5-methoxyphenyl)-1H-indazol-3-yl]piperidine-3-carboxamide hydrochloride] | 0.025 µM |
| O=C(Nc1n[nH]c2ccc(-c3ccc(C(F)(F)F)cc3Cl)cc12)[C@@H]1CCCNC1 [cpd 44, (3R)-N-{5-[2-Chloro-4-(trifluoromethyl)phenyl]-1H-indazol-3-yl}piperidine-3-carboxamide hydrochloride] | 0.156 µM |
| CN1CCC(C(=O)Nc2n[nH]c3ccc(-c4ccc(C=O)cc4F)cc23)CC1 [cpd 118, N-[5-(2-Fluoro-4-formylphenyl)-1H-indazol-3-yl]-1-methylpiperidine-4-carboxamide hydrochloride] | 0.467 µM |
| N#Cc1ccc(Cl)c(-c2ccc3[nH]nc(NC(=O)[C@H]4CCC5(CCCC5)NC4)c3c2)c1 (single isomer, unassigned) [compound 205, (8-)-N-[5-(2-Chloro-5-cyanophenyl)-1H-indazol-3-yl]-6-azaspiro[4.5]decane-8-carboxamide hydrochloride] | 0.278 µM |
| CC(C)(CO)CN1CCC(C(=O)Nc2n[nH]c3ccc(-c4c(Cl)cccc4Cl)cc23)CC1 [cpd 71, N-[5-(2,6-Dichlorophenyl)-1H-indazol-3-yl]-1-(3-hydroxy-2,2-dimethylpropyl)piperidine-4-carboxamide] | 0.135 µM |
| O=C(CC1CCNCC1)Nc1n[nH]c2ccc(-c3c(Cl)cccc3Cl)cc12 [compound 163, N-[5-(2,6-Dichlorophenyl)-1H-indazol-3-yl]-2-(piperidin-4-yl)acetamide hydrochloride] | 0.576 µM |
| CN1CCC(C(=O)Nc2n[nH]c3ccc(-c4c(F)cc(O)cc4F)cc23)CC1 [compound 138, N-[5-(2,6-Difluoro-4-hydroxyphenyl)-1H-indazol-3-yl]-1-methylpiperidine-4-carboxamide trifluoroacetate] | 0.376 µM |
| CNC1CC(C(=O)Nc2n[nH]c3ccc(-c4cc(C#N)ccc4Cl)cc23)C1 (centres unmarked) [compound 146, N-[5-(2-Chloro-5-cyanophenyl)-1H-indazol-3-yl]-3-(methylamino)cyclobutanecarboxamide hydrochloride] | 0.023 µM |
| CN1CCC(C(=O)Nc2n[nH]c3ccc(-c4cccc(F)c4F)cc23)CC1 [cpd 99, N-[5-(2,3-Difluorophenyl)-1H-indazol-3-yl]-1-methylpiperidine-4-carboxamide hydrochloride] | 0.173 µM |
| CN1CCC(C(=O)Nc2n[nH]c3ccc(-c4cccc(Cl)c4Cl)cc23)CC1 [cpd 97, N-[5-(2,3-Dichlorophenyl)-1H-indazol-3-yl]-1-methylpiperidine-4-carboxamide hydrochloride] | 0.643 µM |
| CC(C)(C)COC(=O)n1nc(NC(=O)[C@@H]2CCCNC2)c2cc(-c3cc(C#N)ccc3Cl)ccc21 [cpd 212, 2,2-Dimethylpropyl 5-(2-chloro-5-cyanophenyl)-3-{[(3R)-piperidin-3-ylcarbonyl]amino}-1H-indazole-1-carboxylate hydrochloride] | 0.821 µM |

| Compound | DC50 |
| --- | --- |
| N#Cc1ccc(Cl)c(-c2ccc3[nH]nc(NC(=O)C4CN5CCC4CC5)c3c2)c1 (centres unmarked) [compound 188, N-[5-(2-Chloro-5-cyanophenyl)-1H-indazol-3-yl]-1-azabicyclo[2.2.2]octane-3-carboxamide hydrochloride] | 0.275 µM |
| O=C1CCC(C(=O)Nc2n[nH]c3ccc(-c4c(Cl)cccc4Cl)cc23)CN1 (centres unmarked) [cpd 27, N-[5-(2,6-Dichlorophenyl)-1H-indazol-3-yl]-6-oxopiperidine-3-carboxamide] | 0.338 µM |
| CCCN1CCC(C(=O)Nc2n[nH]c3ccc(-c4cc(C#N)ccc4Cl)cc23)CC1 [compound 141, N-[5-(2-Chloro-5-cyanophenyl)-1H-indazol-3-yl]-1-propylpiperidine-4-carboxamide hydrochloride] | 0.079 µM |
| Cc1ccc(Cl)c(-c2ccc3[nH]nc(NC(=O)C4CCN(C)CC4)c3c2)c1 [cpd 86, N-[5-(2-Chloro-5-methylphenyl)-1H-indazol-3-yl]-1-methylpiperidine-4-carboxamide hydrochloride] | 0.502 µM |
| N#Cc1ccc(Cl)c(-c2ccc3[nH]nc(NC(=O)C4CCNCC4)c3c2)c1 [cpd 61, N-[5-(2-Chloro-5-cyanophenyl)-1H-indazol-3-yl]piperidine-4-carboxamide hydrochloride] | 0.139 µM |
| O=C(Nc1n[nH]c2ccc(-c3ccccc3Cl)cc12)[C@@H]1CCCNC1 [cpd 47, (3R)-N-[5-(2-Chlorophenyl)-1H-indazol-3-yl]piperidine-3-carboxamide hydrochloride] | 0.038 µM |
| CN1CCC(C(=O)Nc2n[nH]c3ccc(-c4c(Cl)cc(Cl)cc4Cl)cc23)CC1 [cpd 108, 1-Methyl-N-[5-(2,4,6-trichlorophenyl)-1H-indazol-3-yl]piperidine-4-carboxamide hydrochloride] | 0.15 µM |
| Nc1ccc(Cl)c(-c2ccc3[nH]nc(NC(=O)[C@@H]4CCCNC4)c3c2)c1 [cpd 34, (3R)-N-[5-(5-Amino-2-chlorophenyl)-1H-indazol-3-yl]piperidine-3-carboxamide dihydrochloride] | 0.019 µM |
| COC(=O)c1cc(-c2ccc3[nH]nc(NC(=O)[C@@H]4CCCNC4)c3c2)c(Cl)cc1Cl [cpd 42, Methyl 2,4-dichloro-5-(3-{[(3R)-piperidin-3-ylcarbonyl]amino}-1H-indazol-5-yl)benzoate hydrochloride] | 0.057 µM |
| CN1CCC(C(=O)Nc2n[nH]c3ccc(-c4cc(C#N)ccc4Cl)cc23)CC1 [cpd 116, N-[5-(2-Chloro-5-cyanophenyl)-1H-indazol-3-yl]-1-methylpiperidine-4-carboxamide trifluoroacetate] | 0.063 µM |
| Cc1ccc(F)c(-c2ccc3[nH]nc(NC(=O)C4CCN(C)CC4)c3c2)c1Cl [cpd 73, N-[5-(2-Chloro-6-fluoro-3-methylphenyl)-1H-indazol-3-yl]-1-methylpiperidine-4-carboxamide hydrochloride] | 0.476 µM |
| O=C(Nc1n[nH]c2ccc(-c3ccc(O)cc3Cl)cc12)C1CCCNC1 (centres unmarked) [cpd 3, N-[5-(2-Chloro-4-hydroxyphenyl)-1H-indazol-3-yl]piperidine-3-carboxamide hydrochloride] | 0.051 µM |
| CCOc1ccc2[nH]nc(NC(=O)[C@@H]3CCCNC3)c2c1 [cpd 229, (3R)-N-(5-Ethoxy-1H-indazol-3-yl)piperidine-3-carboxamide hydrochloride] | 0.02 µM |
| CC(=O)c1ccc(F)c(-c2ccc3[nH]nc(NC(=O)[C@@H]4CCCNC4)c3c2)c1 [cpd 19, (3R)-N-[5-(5-Acetyl-2-fluorophenyl)-1H-indazol-3-yl]piperidine-3-carboxamide hydrochloride] | 0.027 µM |
| O=C(Nc1n[nH]c2ccc(-c3ccc(O)cc3Cl)cc12)[C@@H]1CCCNC1 [cpd 6, (3R)-N-[5-(2-chloro-4-hydroxyphenyl)-1H-indazol-3-yl]piperidine-3-carboxamide hydrochloride] | 0.023 µM |
| C[C@@H]1CC[C@@H](C(=O)Nc2n[nH]c3ccc(-c4c(Cl)cccc4Cl)cc23)CN1 [compound 178, (3R,6R)-N-[5-(2,6-Dichlorophenyl)-1H-indazol-3-yl]-6-methylpiperidine-3-carboxamide trifluoroacetate] | 0.028 µM |
| N#Cc1ccc(Cl)c(-c2ccc3[nH]nc(NC(=O)C4CC(NC5CCC5)C4)c3c2)c1 (centres unmarked) [compound 153, N-[5-(2-Chloro-5-cyanophenyl)-1H-indazol-3-yl]-3-(cyclobutylamino)cyclobutanecarboxamide hydrochloride] | 0.041 µM |
